The text below walks through data of patent US5625061A, “Compounds useful in preparing antiproliferative agents and garft inhibitors” (Agouron Pharmaceuticals, Inc., priority 1995, dated 1997).

Series [1] deals with 6C3HED lymphosarcoma implanted in C3H/He female mice. The experiment in a line: In vivo antitumor activity, 6C3HED lymphosarcoma. The arrangement: species or system mouse. The following applies: intraperitoneal, once daily for nine days, day 11. As for the experimental part: On day zero, 2 mm^2 trocar fragments of 6C3HED lymphosarcoma were implanted subcutaneously in the axillary region into groups of six C3H/He female mice. Starting on day 1, the test compound was administered intraperitoneally in 40% Encapsin given once daily for nine days. Control animals received identical treatment without test: compound. The percentage inhibition given in Table 5 below was calculated by comparing the mass of the control tumors (receiving diluent only) on day 11 to those of animals receiving test compound.

Series [2] has as its system C3H/BA mammary adenocarcinoma implanted in C3H/He female mice. The experiment in a line: In vivo antitumor activity, C3H/BA mammary adenocarcinoma. To be noted: intraperitoneal, once daily for nine days, day 14. The arrangement: species or system mouse. As for the experimental part: On day zero, 2 mm^2 trocar fragments of C3H/BA mammary adenocarcinoma were implanted subcutaneously in the axillary region into groups of six C3H/He female mice. Starting on day 1, the test compound was administered intraperitoneally in 40% Encapsin given once daily for nine days. Control animals received identical treatment without test compound. The percentage of inhibition was calculated by comparing the mass of the control tumors (receiving diluent only) on day 14 to those of animals receiving test compound.

The test system of the next series is GARFT. To be noted: F. M. Muggia, New Drugs, 1992; cited from earlier work.

`Nc1nc2c(c(=O)[nH]1)SC(CCc1ccc(C(=O)N[C@@H](CCC(=O)O)C(=O)O)s1)CN2` (stereo partly drawn) [Compound 21, 4-[2-(2-Amino-4-oxo-4,6,7,8-tetrahydro-3H-pyrimido[5,4-6][1,4]thiazin-6-yl)-ethyl]-2,5-thienoylamino -L-glutamic acid]: the “% Inhibition (tumor mass)” value in series [1] (12.5 mg/kg) was 100%; in series [1] (25 mg/kg) it was 100%; in series [2] (5 mg/kg) it was 16%; in series [2] (10 mg/kg), 84%; in series [2] (20 mg/kg), 100%. Besides, in series [1] (50 mg/kg), the “% Inhibition column: toxicity” value was “toxic”.

Regarding `Nc1nc2c(c(=O)[nH]1)CC(CCc1ccc(C(=O)N[C@@H](CCC(=O)O)C(=O)O)cc1)CN2` (stereo partly shown) [5,10-dideazatetrahydrofolic acid], in the series on GARFT, the “GARFT inhibition (in words)” value is recorded as “specific tight binding inhibitor of GARFT”.
